# Experiments:
# Rac1-GTPase = target: T1, Rac1-GTPase (Homo sapiens, UniProt P63000); assay: pull down assay for RAC-GTP with Western blot; type: cell-based; conditions: exposure of the cells for 5 and 60 minutes, FIG. 9b
# T1 construct: The assay initially required treatment of cells followed by pull down and analysis with Western blot; endogenous in cells; host or cells: Leukemia cells
# Experimental: To determine which of these compounds should be further pursued, a biochemical pull down assay was performed to confirm specific inhibition of Rac activation indicated by disruption of the interaction between Rac and […]. The assay initially required treatment of cells followed by pull down and analysis with Western blot. The cells were first starved in serum free media for 2 hours. They were then re-suspended in serum-containing medium and inhibitors added at desired concentration. Following incubation for the desired length of time, the cells were pelleted and lysed with Magnesium Lysis Buffer (Millipore Mg^2+lysis/wash buffer). The Rac protein and any bound proteins were then collected with Pak Beads (Millipore Rac/cdc42 Assay Reagent (PAK-1 PBD, agarose). Bound protein was subsequently removed with lysis buffer and subject to Western Blot analysis.
# Additional analysis of Compound 5 was performed to assess its effects on apoptosis, cell death and RAC-GTPase interaction. FIG. 9a indicates the effect of OSSK—373747 on the apoptotic pathway in SEM cells. Apoptotic cells and dead cells following incubation of SEM cells with 20 and 80 μM of Compound 5 were analyzed using Annexin V staining.
# [1] = system: normal bone marrow hematopoietic progenitor cells; assay: clonogenic assay in methylcellulose (colony formation) for toxicity; type: cell-based, mouse; conditions: compared to the other compounds
# Experimental: Four of the lead compounds (Compounds 2, 3, 4, and 5) were screened for toxicity in normal bone marrow hematopoietic progenitor cells. Average colonies formed from normal BL-6 mouse bone marrow were counted following exposure of the four lead compounds individually at concentrations of 5 μM, 20 μM or 80 μM in methylcellulose. A clonogenic assay in methylcellulose was performed to assess colony formation. MethoCult base (StemCell Tech #03134) was mixed with the following reagents: fetal bovine serum, bovine serum albumin, IL-3, mSCF, EPO, beta-mercaptoethanol, penicillin, streptomycin, L-glutamine, and IMDM, and added to normal bone marrow cells. The cells in suspension are then plated and resulting colonies counted after 7 days.
# leukemia cell lines = assay: MTS assay of inhibition of proliferation; type: cell-based
# Experimental: The 100 compounds selected from the initial in silico screen were assayed for inhibition of proliferation in two leukemia cell lines, SEM and REH, by MTS ((3-(4,5-dimethylthiazol-2-yl)-5-(3-carboxymethoxyphenyl)-2-(4-sulfophenyl)-2H-tetrazolium)) assay. The cells for the MTS assay were spun down and re-suspended. The cell suspension was then divided and the compound to be tested added in desired concentrations and subsequently plated. Following an incubation period, MTS reagent (Promega CellTiter 96® Aqueous Non-Radioactive Cell Proliferation Assay) was added and allowed to incubate. The absorbance is subsequently measured at 490 nm using a plate reader.
# The five lead compounds, i.e. Compounds 1-5, were further analyzed for their effect on cell proliferation at various doses on different leukemia cells. First, each the five compounds was screened in nine leukemia cell lines: REH, SEM, MV411, RS411, Jurkat, Raji, Nomo-1, Naim6, and ML2 at a concentration of 20 μM. Four of the lead compounds, Compounds 2, 3, 4 and 5 were further tested in SEM and MV411 cells at a range of concentrations for inhibition of proliferation. In order to quantitate the percentage inhibition of cell proliferation, MTS analysis was completed as described in Example 2 above.
# [2] = in vivo tolerability in NSG mice xenografted with MV411 cells
# Experimental: In vivo tolerability of Compound 7 was evaluated in NSG mice xenografted with MV411 cells stably expressing luciferase via constitutive promoter. Compound 7 was prepared in a solution of 10% NMP, 5% CremaphorEL, 30% PEG200, and 55% D5W and administered PO at a dose of 50, 100, 250, or 500 mg/kg once each day for a period of 7 days. Five mice were utilized for each test group.
# Body weight was recorded 3 times/week upon dosing. On treatment day 6, the mice were imaged via bioluminescence imaging to ensure the presence of the xenografted MV411 leukemia cells. Following the final dose, dose 7, at least 100 μL of blood was drawn via submandibular bleed for plasma collection. Eight hours following the last dose, cardiac puncture blood draw was performed for plasma collection.
compound,measurement,setting,value
O=C(CSc1nc2ccccc2n1Cc1ccccc1)N/N=C/c1ccccc1O [Compound 5],GTPase and Rac interaction,Rac1-GTPase,decrease in GTPase and Rac interaction
same,toxicity to the normal cells (average colonies from normal mouse bone marrow),"[1]; 20 μM or 80 μM, FIG. 8",least toxicity
same,toxicity to normal bone marrow cells,[1]; summary statement,low toxicity
same,efficacy (inhibition of leukemia cell proliferation),"leukemia cell lines; summary of prior experiments, compared to the other compounds",strong efficacy
Cc1nn(Cc2ccc(F)cc2)c2sc(C(=O)Nc3ccc4c(c3)OCO4)cc12 [Compound 7],in vivo tolerability,"[2]; PO 50, 100, 250 or 500 mg/kg once each day for 7 days",tolerable
same,change in weight of animals,"[2]; PO 50, 100, 250 or 500 mg/kg over a 7 day period, FIG. 19b",no progressive weight loss
NNC(=O)CSc1nc2ccccc2n1Cc1ccccc1 [Compound 12],inhibitory activity on leukemia cell lines,leukemia cell lines; in vitro,retains inhibitory activity

# Source: patent publication US20150265608A1, “Compounds for Treating Rac-GTPase Mediated Disorder” (Children's Medical Center Corporation, priority 2012, published 2015)
